Publication PMC10828660 (Heliyon, 2024)
Blank lines part the entries; values can stand above or below the compound they belong to.

Columns and labels:
[1] = system: HepG2; test: MTT anti-proliferative assay against HepG2; assay type: cell-based; settings: Homo sapiens, HepG2, read-out: HepG2 IC50
[2] = system: MCF-7; test: MTT anti-proliferative assay against MCF-7; assay type: cell-based; settings: Homo sapiens, MCF7, read-out: MCF-7 IC50
[3] = target: VEGFR-2 (Homo sapiens, UniProt P35968); test: biochemical
Chain of VEGFR-2 (P35968 20-1356): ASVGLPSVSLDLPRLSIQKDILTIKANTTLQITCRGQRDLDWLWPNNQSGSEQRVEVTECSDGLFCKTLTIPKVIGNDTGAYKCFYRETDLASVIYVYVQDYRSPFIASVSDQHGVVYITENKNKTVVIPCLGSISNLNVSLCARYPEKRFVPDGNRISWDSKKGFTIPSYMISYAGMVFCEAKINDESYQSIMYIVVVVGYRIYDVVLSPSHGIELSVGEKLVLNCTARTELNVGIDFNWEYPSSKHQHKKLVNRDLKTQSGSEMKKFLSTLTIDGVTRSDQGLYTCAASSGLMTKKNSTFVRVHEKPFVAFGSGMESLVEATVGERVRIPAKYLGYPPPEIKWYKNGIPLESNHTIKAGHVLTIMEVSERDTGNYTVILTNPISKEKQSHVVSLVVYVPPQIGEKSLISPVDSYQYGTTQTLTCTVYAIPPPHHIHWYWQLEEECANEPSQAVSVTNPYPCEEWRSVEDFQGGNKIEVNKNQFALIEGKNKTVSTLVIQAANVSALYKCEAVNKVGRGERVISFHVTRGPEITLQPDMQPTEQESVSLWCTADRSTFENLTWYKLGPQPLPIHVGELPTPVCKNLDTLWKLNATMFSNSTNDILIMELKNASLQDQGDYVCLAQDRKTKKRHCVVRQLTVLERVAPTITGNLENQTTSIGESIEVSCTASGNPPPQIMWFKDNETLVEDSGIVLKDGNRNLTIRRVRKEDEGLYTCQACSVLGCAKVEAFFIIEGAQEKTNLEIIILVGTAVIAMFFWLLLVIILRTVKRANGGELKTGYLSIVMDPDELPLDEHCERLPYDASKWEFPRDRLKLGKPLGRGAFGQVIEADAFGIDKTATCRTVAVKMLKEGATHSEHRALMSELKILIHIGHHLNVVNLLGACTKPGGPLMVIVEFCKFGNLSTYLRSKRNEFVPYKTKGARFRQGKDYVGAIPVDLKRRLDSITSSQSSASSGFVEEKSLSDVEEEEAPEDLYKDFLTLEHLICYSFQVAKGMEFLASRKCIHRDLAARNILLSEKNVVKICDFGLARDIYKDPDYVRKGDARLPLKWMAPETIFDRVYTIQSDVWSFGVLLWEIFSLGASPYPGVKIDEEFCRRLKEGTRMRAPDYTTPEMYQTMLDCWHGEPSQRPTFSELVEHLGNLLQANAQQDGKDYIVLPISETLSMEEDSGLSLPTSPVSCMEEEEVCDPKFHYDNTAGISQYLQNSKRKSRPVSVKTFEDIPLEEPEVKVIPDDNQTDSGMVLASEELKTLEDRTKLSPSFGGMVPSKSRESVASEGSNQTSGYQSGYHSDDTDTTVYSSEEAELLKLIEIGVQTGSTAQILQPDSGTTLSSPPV

[4] = system: MCF-7 cells; test: Cell cycle analysis by flow cytometry; assay type: cell-based, Human
[5] = system: Vero cells; test: In vitro safety assay on normal Vero cells; assay type: cell-based
[6] = system: MCF-7 cells; test: Annexin-V/propidium iodide apoptosis analysis; assay type: cell-based, Human
[7] = system: MCF-7 cells; test: Wound healing; assay type: cell-based, Human

SMILES: O=C(CN1C(=O)SC(=Cc2ccccc2Cl)C1=O)Nc1ccc(C(=O)NNc2ccccc2)cc1 [Compound 18, 2-(5-(2-Chlorobenzylidene)-2,4-dioxothiazolidin-3-yl)-N-(4-(2-phenylhydrazine-1-carbonyl)phenyl)acetamide]
IC50 [1]: 4.7 ± 0.1 µM
IC50 [2]: 1.76 ± 0.02 µM
IC50 [3]: 2.66 ± 0.112 µM

SMILES: O=C(CN1C(=O)SC(=Cc2ccccc2Cl)C1=O)Nc1ccc(C(=O)NNC(=O)c2cccc(Cl)c2)cc1 [Compound 19, N-(4-(2-(3-chlorobenzoyl)hydrazine-1-carbonyl)phenyl)-2-(5-(2-chlorobenzylidene)-2,4dioxothiazolidin-3-yl)acetamide]
IC50 [1]: 3.06 ± 0.02 µM
IC50 [2]: 2.29 ± 0.19 µM
IC50 [3]: 0.323 ± 0.014 µM

SMILES: O=C(CN1C(=O)SC(=Cc2ccccc2Cl)C1=O)Nc1ccc(C(=O)NNC(=O)c2ccccc2O)cc1 [Compound 20, 2-(5-(2-Chlorobenzylidene)-2,4-dioxothiazolidin-3-yl)-N-(4-(2-(2-hydroxybenzoyl) hydrazine-1-carbonyl)phenyl)acetamide]
IC50 [1]: 1.14 ± 0.03 µM
IC50 [2]: 0.66 ± 0.03 µM
IC50 [3]: 0.21 ± 0.009 µM

SMILES: O=C(CN1C(=O)SC(=Cc2ccc(Cl)cc2Cl)C1=O)Nc1ccc(C(=O)NNC(=O)c2ccccc2)cc1 [Compound 22, N-(4-(2-benzoylhydrazine-1-carbonyl)phenyl)-2-(5-(2,4-dichlorobenzylidene)-2,4-dioxothiazolidin-3-yl)acetamide]
IC50 [1]: 2.04 ± 0.06 µM
Cell cycle arrest phase ([4]; MCF-7, 1.21 μM): S phase
Cell cycle distribution G2/M ([4]; MCF-7, 1.21 μM for 72 h, control 16.35): 13.77%
Cell cycle distribution S ([4]; MCF-7, 1.21 μM for 72 h, control 24.61): 33.84%
Cell cycle distribution G0-G1 ([4]; MCF-7, 1.21 μM for 72 h, control 59.04): 52.39%
IC50 [2]: 1.21 ± 0.04 µM
Selectivity index HepG2 ([5]; IC50 Vero divided by IC50 HepG2): 1.95
Selectivity index MCF-7 ([5]; IC50 Vero divided by IC50 MCF-7): 3.28
IC50 [3]: 0.079 ± 0.003 µM
Increase of early apoptosis compared to untreated cells ([6]; MCF-7, 1.21 μM): about 76 times
Increase of late apoptosis compared to untreated cells ([6]; MCF-7, 1.21 μM): about 90 fold
Apoptosis Late (Right Top) ([6]; MCF-7, 1.21 μM, 72 h, control 0.15): 13.53%
Apoptosis Early (Right Bottom) ([6]; MCF-7, 1.21 μM, 72 h, control 0.29): 22.15%
Necrosis (Left Top) ([6]; MCF-7, 72 h treatment, control 2.22): 5.34
RM ([7]; MCF-7, 48 h, untreated 16.58): 6.16 um
Wound closure ([7]; MCF-7, 48 h, untreated 81.62): 30.20 % um^2
Area difference ([7]; MCF-7, 48 h, untreated 795.83): 295.83%
Reduction in scratch width ([7]; MCF-7, after 48 h, untreated 81.62 %): 30.20%
Scratch width at 48 h ([7]; MCF-7, untreated 178.24): 682.93
Scratch area at 48 h ([7]; MCF-7, untreated 179.17): 683.83
Scratch width at 24 h ([7]; MCF-7, untreated 644.43): 904.16
Scratch area at 24 h ([7]; MCF-7, untreated 645.50): 905.17
Scratch width at 0 h ([7]; MCF-7, untreated 974.11): 978.78
Scratch area at 0 h ([7]; MCF-7, untreated 975.00): 979.67

SMILES: O=C(CN1C(=O)SC(=Cc2ccc(Cl)cc2Cl)C1=O)Nc1ccc(C(=O)NNC(=O)c2ccccc2O)cc1 [Compound 24, 2-(5-(2,4-Dichlorobenzylidene)-2,4-dioxothiazolidin-3-yl)-N-(4-(2-(2-hydroxybenzoyl) hydrazine-1-carbonyl)phenyl)acetamide]
IC50 [1]: 0.6 ± 0.02 µM
IC50 [2]: 0.65 ± 0.01 µM
IC50 [3]: 0.203 ± 0.009 µM

Next, values leading:

IC50 [1]: 0.84 ± 0.01 µM
IC50 [2]: 0.68 ± 0.01 µM
IC50 [3]: 1.66 ± 0.07 µM
SMILES: O=C(CN1C(=O)SC(=Cc2ccc(Cl)cc2Cl)C1=O)Nc1ccc(C(=O)Nc2cccc(Cl)c2)cc1 [Compound 21, N-(3-chlorophenyl)-4-(2-(5-(2,4-dichlorobenzylidene)-2,4-dioxothiazolidin-3-yl)acetamido)benzamide]

IC50 [1]: 1.18 ± 0.01 µM
IC50 [2]: 0.95 ± 0.01 µM
IC50 [3]: 0.328 ± 0.014 µM
SMILES: O=C(CN1C(=O)SC(=Cc2ccc(Cl)cc2Cl)C1=O)Nc1ccc(C(=O)NNC(=O)c2cccc(Cl)c2)cc1 [Compound 23, N-(4-(2-(3-chlorobenzoyl)hydrazine-1-carbonyl)phenyl)-2-(5-(2,4-dichlorobenzylidene)-2,4-dioxothiazolidin-3-yl)acetamide]
